Laboratory results reported in the supplement of paper PMC13380429.

Legend:
Details in all cases: 72 h
[1] = system: Caco-2; experiment: cell viability relative to DMSO; higher = less toxic
[2] = system: Calu-3; experiment: as above
[3] = system: HepG2; experiment: as above
[4] = system: U2OS; experiment: as above
[5] = system: Vero E6; experiment: as above
[6] = system: Caco-2; experiment: relative viability EC50 (midpoint between 100% and the lowest measured viability); higher = less toxic
[7] = system: Calu-3; experiment: as above
[8] = system: HepG2; experiment: as above
[9] = system: U2OS; experiment: as above
[10] = system: Vero E6; experiment: as above
[11] = system: Caco-2; experiment: drug sensitivity score (DSS) for viability; higher = more toxic; extreme values may be limits of the assay
[12] = system: Calu-3; experiment: as above
[13] = system: HepG2; experiment: as above
[14] = system: U2OS; experiment: as above
[15] = system: Vero E6; experiment: as above

Row | SMILES | cell viability ([1]; 1 nM) [%] | cell viability ([1]; 10 nM) [%] | cell viability ([1]; 100 nM) [%] | cell viability ([1]; 1000 nM) [%] | cell viability ([1]; 10000 nM) [%] | cell viability ([2]; 1 nM) [%] | cell viability ([2]; 10 nM) [%] | cell viability ([2]; 100 nM) [%] | cell viability ([2]; 1000 nM) [%] | cell viability ([2]; 10000 nM) [%] | cell viability ([3]; 1 nM) [%] | cell viability ([3]; 10 nM) [%] | cell viability ([3]; 100 nM) [%] | cell viability ([3]; 1000 nM) [%] | cell viability ([3]; 10000 nM) [%] | cell viability ([4]; 1 nM) [%] | cell viability ([4]; 10 nM) [%] | cell viability ([4]; 100 nM) [%] | cell viability ([4]; 1000 nM) [%] | cell viability ([4]; 10000 nM) [%] | cell viability ([5]; 1 nM) [%] | cell viability ([5]; 10 nM) [%] | cell viability ([5]; 100 nM) [%] | cell viability ([5]; 1000 nM) [%] | cell viability ([5]; 10000 nM) [%] | relative viability EC50 [6] [µM] | relative viability EC50 [7] [µM] | relative viability EC50 [8] [µM] | relative viability EC50 [9] [µM] | relative viability EC50 [10] [µM] | drug sensitivity score [11] | drug sensitivity score [12] | drug sensitivity score [13] | drug sensitivity score [14] | drug sensitivity score [15]
1 | CCCCCCCCCCCCCCCC[n+]1ccn(Cc2ccccc2)c1C [NH125] | 100 | 92.4 | 97 | 59.9 | 0.8 | 99.2 | 99.1 | 89.7 | 82.1 | 23.3 | 96.3 | 106 | 97.2 | 32.6 | 0 | 105 | 93.7 | 95.9 | 57.1 | 0.1 | 104 | 106 | 99.5 | 85.2 | 0.3 | 1.2 | 1.64 | 0.682 | 1.16 | 1.99 | 10.5 | 7 | 13.6 | 10.7 | 8
2 | N#CC(c1ccnc(OCc2ccc(CN3CCOCC3)cc2)n1)c1nc2ccccc2s1 (stereo not given) [PGL5001] | 103 | 86 | 98.4 | 97 | 83.5 | 112 | 104 | 107 | 98.5 | 102 | 98.4 | 102 | 104 | 89.6 | 80.9 | 102 | 97.5 | 98.7 | 103 | 92 | 99.8 | 98.3 | 93.1 | 101 | 98.8 | > 10 | > 10 | > 10 | > 10 | > 10 | 0.3 | 0 | 1.5 | 0 | 0
3 | CCCCCCCCCCCCc1ccc(S(=O)(=O)Nc2nncs2)cc1 [PHT-427] | 95.2 | 95.3 | 101 | 98.1 | 97.4 | 96.4 | 94.9 | 95.6 | 99.6 | 99 | 93.6 | 106 | 88.1 | 102 | 92.6 | 102 | 97.5 | 98.2 | 98.7 | 99.9 | 106 | 108 | 102 | 97.8 | 104 | > 10 | > 10 | > 10 | > 10 | > 10 | 0 | 0 | 0 | 0 | 0
4 | N[C@@H](CC(=O)N1CCn2c(nnc2C(F)(F)F)C1)Cc1n[nH]c2c(F)c(F)ccc12 [PK-44] | 87.8 | 96.3 | 102 | 105 | 92.4 | 95.3 | 96.6 | 95.8 | 100 | 100 | 102 | 92 | 114 | 91.5 | 91 | 102 | 100 | 99.4 | 104 | 99.7 | 102 | 103 | 104 | 98.4 | 100 | > 10 | > 10 | > 10 | > 10 | > 10 | 0 | 0 | 0 | 0 | 0
5 | O=[N+]([O-])c1cc(Cl)ccc1S(=O)(=O)N1CCN(Cc2ccccc2)CC1 [RN-1747] | 94.3 | 94 | 96.2 | 106 | 99.9 | 96.4 | 104 | 94.6 | 102 | 106 | 105 | 92.9 | 104 | 86.9 | 104 | 94.6 | 100 | 96.2 | 102 | 106 | 99.5 | 92.2 | 93.4 | 96.1 | 102 | > 10 | > 10 | > 10 | > 10 | > 10 | 0 | 0 | 0 | 0 | 0
6 | NC(=O)c1[nH]cnc1O [SM-108] | 91.2 | 101 | 102 | 104 | 97.9 | 96.2 | 89 | 101 | 107 | 99.8 | 95 | 93.9 | 95.8 | 102 | 98.7 | 100 | 95.7 | 104 | 96.6 | 104 | 102 | 108 | 99.7 | 103 | 100 | > 10 | > 10 | > 10 | > 10 | > 10 | 0 | 0 | 0 | 0 | 0
7 | CCc1c2c(nc3ccc(O)cc13)-c1cc3c(c(=O)n1C2)COC(=O)[C@]3(O)CC [SN-38] | 99.4 | 89.5 | 73 | 34.1 | 20.7 | 112 | 85.9 | 54 | 25.1 | 28.8 | 86.6 | 48.6 | 29.5 | 5.6 | 2.4 | 107 | 102 | 79.9 | 25.8 | 4.9 | 102 | 101 | 71.2 | 58.3 | 9.6 | 0.183 | 0.0579 | 0.0122 | 0.326 | 0.65 | 15.6 | 19.7 | 32.4 | 16.2 | 11.9
8 | COc1ccccc1Oc1c(NS(=O)(=O)c2ccc(C)cn2)nc(-c2ccncc2)nc1OC [SPP301] | 93.2 | 100 | 105 | 106 | 84.4 | 85.6 | 96.1 | 93.4 | 99 | 98 | 106 | 92.6 | 93.2 | 95.1 | 101 | 99.9 | 102 | 98.8 | 100 | 95.4 | 102 | 102 | 105 | 94.3 | 102 | > 10 | > 10 | > 10 | > 10 | > 10 | 0.1 | 0 | 0 | 0 | 0
9 | CC(=O)Nc1cccc(Nc2ncnc(N3CCC(OCc4ccc(OC(F)(F)F)cc4)CC3)n2)c1C [TC-N-1752] | 94.7 | 97.8 | 94.5 | 101 | 80.4 | 93.9 | 102 | 87.1 | 97.8 | 107 | 105 | 95.8 | 93 | 104 | 31.5 | 96 | 98.7 | 95.2 | 94.4 | 99.3 | 95.8 | 102 | 100 | 94.4 | 107 | > 10 | > 10 | 3.47 | > 10 | > 10 | 0.5 | 0 | 3.4 | 0 | 0
10 | Clc1ccc(C2=CCC[C@H]3CC[C@@H]2N3)cn1 [UB-165] | 92.2 | 97.7 | 96.8 | 93 | 102 | 108 | 107 | 91.3 | 93.2 | 100 | 98.2 | 97 | 93.1 | 95.5 | 102 | 101 | 107 | 97.1 | 97.5 | 102 | 101 | 102 | 95.6 | 100 | 103 | > 10 | > 10 | > 10 | > 10 | > 10 | 0 | 0 | 0 | 0 | 0
11 | Cc1ccc(S(=O)(=O)Nc2nc3ccccc3nc2Nc2ccc3nsnc3c2)cc1 [XL147] | 96.1 | 107 | 98.6 | 105 | 92.9 | 93.3 | 113 | 98.6 | 88.6 | 97.6 | 107 | 101 | 90.9 | 97.7 | 99.5 | 96 | 103 | 104 | 99.2 | 95.1 | 93.7 | 94.1 | 100 | 96.3 | 95.2 | > 10 | > 10 | > 10 | > 10 | > 10 | 0 | 0.4 | 0 | 0 | 0
12 | Cc1ccc(/C(=C\CN2CCCC2)c2cccc(/C=C/C(=O)O)n2)cc1 [acrivastine] | 87.6 | 92.3 | 95.4 | 86.8 | 115 | 98.2 | 98.1 | 104 | 116 | 99.1 | 102 | 98.2 | 102 | 98.3 | 95.6 | 100 | 103 | 98.4 | 102 | 103 | 98.1 | 87.9 | 99.8 | 85.3 | 112 | > 10 | > 10 | > 10 | > 10 | > 10 | 0 | 0 | 0 | 0 | 0
13 | CN1CCC(=C2c3ccccc3CCn3c(C=O)cnc32)CC1 [alcaftadine] | 98.1 | 90.6 | 93.8 | 98.5 | 110 | 99.3 | 99.5 | 100 | 87.4 | 105 | 92.7 | 97.2 | 103 | 101 | 104 | 108 | 101 | 101 | 97.7 | 99.6 | 89.4 | 99.4 | 87.1 | 91.6 | 107 | > 10 | > 10 | > 10 | > 10 | > 10 | 0 | 0 | 0 | 0 | 0
14 | C/C=C/c1cc(OC)c(OC)cc1OC [alpha-asarone] | 87.7 | 108 | 88.3 | 118 | 93.5 | 94.6 | 99.8 | 102 | 94 | 105 | 91.3 | 107 | 91.9 | 93.3 | 90.3 | 97.3 | 101 | 93.9 | 100 | 100 | 109 | 86.1 | 99.8 | 101 | 104 | > 10 | > 10 | > 10 | > 10 | > 10 | 0 | 0 | 0 | 0 | 0
